# In ChEMBL document CHEMBL3507680, “University of Dundee, Gates Library screen for HepG2 cell viability”:
# Experiment: Human HepG2 cell viability assay in 384 well format
# Assay type: toxicity, cell-based
# Design: dose 125 nL, time 70.5 hour; concentration not given beside the values
# Settings: HepG2 cells, read-out: Inhibition
row,SMILES,cytotoxicity at 70.5 h [%]
1,COCc1nc(C(=O)N2CCCC2c2noc(C(C)C)n2)cs1 (centres undefined),-0.699
2,CC(=O)N1CCCN(C(=O)NCCc2ccc(Cl)s2)CC1,-1.97
3,CCc1noc(C(C)N2CCC(C(=O)Nc3cnn(CC)c3)CC2)n1 (centres undefined),41.4
4,O=C(Cc1ccccn1)N1CCN(C(=O)c2cccc3[nH]ncc23)CC1,1.92
5,O=C(NS(=O)(=O)c1ccc2c(c1)OCCO2)c1ccc(Br)cc1F,5.66
6,Cc1ccc(N2CCCC(NCC(=O)Nc3cc(C)no3)C2)nn1 (centres undefined),25.6
7,CCCc1nc(CN2CCOC(Cn3cncn3)C2)no1 (centres undefined),18.1
8,CCc1n[nH]c(C2CN(C(=O)Cn3ccccc3=O)CCO2)n1 (centres undefined),21.1
9,CCN(CCNC(=O)c1ccccc1OCCOC)C1CC1,54.8
10,O=C(c1cccc(CNCC2CNc3ccnn3C2)c1)N1CCCC1 (centres undefined),16.7
11,CCOc1cc(/C=C/c2ncc(C(=O)O)s2)ccc1O,0.103
12,Cc1cnn(CCC(=O)N2CCCN(c3ncccc3C#N)CC2)c1,0.758
13,CCCNC(=O)Cn1cc(-c2ccccc2)cn1,1.15
14,CNC(=O)NC(=O)Cn1cc(-c2ccccc2)cn1,-2.21
15,Cc1nc(C)n(CC2CCCCN2CCC(=O)Nc2cc(C)on2)n1 (centres undefined),-3.96
16,Cc1ccccc1Cc1cnc(NC(=O)C2CNC(=O)N2)s1 (centres undefined),2.49
17,Cc1ccc(Cc2cnc(NC(=O)C3CNC(=O)N3)s2)cc1F (centres undefined),-0.116
18,Cc1cc(NC(=O)CCN2CCCC2Cn2cncn2)no1 (centres undefined),1.41
19,CC(C)Oc1ccccc1CNC(=O)N1CCC(n2cncn2)CC1,26.9
20,Cc1cnn(CCC(=O)N2CCN(c3ncccc3Cl)CC2)c1,-0.781

row,SMILES,cytotoxicity at 70.5 h [%]
1,CC(C)c1nc(C(=O)N2CCCC(n3cncn3)C2)c[nH]1 (centres undefined),-2.47
2,c1ccc(-c2nc(CN3CCCC(Cn4cncn4)C3)no2)cc1 (centres undefined),2.09
3,CN1CCCc2cc(CNC(=O)c3ccc(NC4CC4)nc3)ccc21,-3.79
4,Cc1nc(C)n(CC2CCCN(CCc3ccccn3)C2)n1 (centres undefined),28.4
5,COc1ccc(OCCCN2CCOC(Cn3cccn3)C2)cc1 (centres undefined),15.4
6,Cc1ccc(NC2CCN(C(=O)CN(C)C3CC3)CC2)nn1,-1.46
7,Cn1cc(C(=O)CC2CCCN2C(=O)c2n[nH]c3ccccc23)cn1 (centres undefined),8.22
8,CCN(CCNC(=O)c1ccccc1Br)C1CC1,-3.52
9,CCNC(c1cccnc1)c1cc(C)cc(C)c1 (centres undefined),2.24
10,Cc1nn(C)c(Cl)c1C1CCCN1CCc1ccccn1 (centres undefined),1.44
11,CCNC(c1cccnc1)c1ccc(F)c(F)c1 (centres undefined),-2.78
12,Fc1ccc(OCCCN2CCOC(Cn3cncn3)C2)cc1 (centres undefined),-5.61
13,Cc1cnn(CCC(=O)N2CCCN(c3cccnn3)CC2)c1,-2.44
14,Cc1cnc(CN(C)C2CCN(CCn3cc(C#N)cn3)C2)o1 (centres undefined),7.37
15,CCC1CN(CCNC(C)=O)CCN1CCOC (centres undefined),2.28
16,CC(=O)N1CCN(C(=O)c2cnn(-c3ccccc3Cl)c2)CC1,3.15
17,CCOc1cccc2c1OCC(C(=O)NS(=O)(=O)c1ccc(Cl)cc1)=C2,21.1
18,CCCN(Cc1ccccc1)Cn1nc(C)c2c(C)onc2c1=O,0.0673
19,CCN(Cc1cccc(Cl)c1)Cn1nc(C)c2c(C)onc2c1=O,25.1
20,c1ccc2sc(CN3CCOC(Cn4cccn4)C3)nc2c1 (centres undefined),24.8

row,SMILES,cytotoxicity at 70.5 h [%]
1,Cc1cnn(C2CCCN(C(=O)c3cnc4ccccc4n3)C2)c1 (centres undefined),-7.22
2,Cc1cnn(CC2CCCN2C(=O)c2cn(-c3ccccc3)nc2C)c1 (centres undefined),6.33
3,Cc1cc(C)cc(N(C)S(=O)(=O)c2cc(C(=O)O)cs2)c1,-6.25
4,N#Cc1cc(NS(=O)(=O)c2ccc(C(=O)O)cc2F)ccc1F,-1.12
5,Cc1nc(CN2CCOC(CNc3cccnn3)C2)oc1C (centres undefined),30.3
6,O=C(Cc1noc2ccccc12)N1CCCC1c1noc(C2CC2)n1 (centres undefined),32.1
7,CC(C)(C)SCCCC(=O)N1CCC(Nc2cccnn2)CC1,-6.39
8,C1CC(NCc2nc(C3CC3)no2)CN(Cc2noc(C3CC3)n2)C1 (centres undefined),21.5
9,O=C(c1cccc(CN2CCCC2)c1)N1CCCC(n2cncn2)C1 (centres undefined),16.1
10,Cc1ccccc1CCNC(=O)C1CC(=O)N(CC(F)(F)F)C1 (centres undefined),26.6
11,CNS(=O)(=O)c1cccc(CNc2nccc(C(F)(F)F)n2)c1,53.4
12,Cc1csc(N2CCN(C(=O)CCC(=O)c3ccc(C)s3)CC2)n1,7.78
13,O=C(NCCNc1ncccn1)C1CCN(CC(F)(F)F)CC1,-3.78
14,Cc1nc(-c2ccccc2)n(CC(=O)N(C(C)C)C(C)C)n1,2.39
15,CC(C)OCCCNC(=O)c1ccc(-c2ccco2)[nH]c1=O,-2.82
16,O=C(NCCNc1ncccn1)C1CC(=O)N(CC(F)(F)F)C1 (centres undefined),-14.3
17,Cc1ccccc1CC(=O)N1CCN(C2CCOC2=O)CC1 (centres undefined),-5.25
18,CC(C)COCC(NC(=O)c1ccccn1)c1ccco1 (centres undefined),-10.5
19,CCC(CC)NC(=O)Cn1nc(C)nc1-c1ccccc1,-6.22
